Reference: paper PMC8003975 (Cancers, 2021)

Tests used:
survivin = test: Western blot of treated HNC cells; assay type: cell-based, human; settings: Cal27 and JHU029 cells, 48 hr; 2% BME or 10 µg/mL M-I
Protocol: Representative Western blot image for c-Myc, survivin and cyclin D1 expression in Cal27 and JHU029 cells with treatment of BME or M-I. The same membrane used in panel A was reprobed. Actin was used as internal control. Quantitative representation of Western blot band intensities (right panel). Small bar indicates standard error (*** p < 0.001).
Bitter melon extract (BME) was prepared from the Chinese variety of young bitter melons (raw and green) as described previously [17]. Briefly, BME was prepared by aqueous extraction from whole fruit without seeds using a household juicer at room temperature with subsequent centrifugation at 15000× g at 4 °C for 30 min. BME was stored at −80 °C for further analysis. Cal27 and JHU029 cells were treated with 2% BME and JHU022 cells were treated with 3% BME as described previously [17, 21]. […] The powder was dissolved in DMSO and added to the cells at different concentrations. Based on cytotoxicity data, Cal27 and JHU029 cells were treated with 10 µg/mL and JHU022 cells were treated with 20 µg/mL dose of M-I and incubated for 48 hr for further experiments. All the experiments were done at least in triplicate.
HRP conjugated anti-mouse or anti-rabbit secondary antibodies were purchased from Bio-Rad (Hercules, CA, USA). The blot was reprobed with HRP conjugated β-actin antibody (1:5000; SBT) to compare protein load in each lane. […]

Cal27 xenograft = test: Tumorigenicity assay, HNC xenograft model; assay type: in vivo, BALB/c athymic nude mice
Protocol: Figure 7 Therapeutic effect of momordicine-I in Cal27 xenograft model. Cal27 cells (1.5 × 10^6) cells were injected subcutaneously into the flank of nude mice. After formation of palpable tumor, mice were randomly divided into three groups (n = 5): Control (without any treatment), BME group (30% BME through drinking water) and M-I group (30 mg/kg IP, once in a day and every day). (A) Body weight was measured in control and treated mice. (B) Tumors were measured using a slide caliper and tumor volumes were calculated. Arrow indicates starting point BME/ M-I treatment. (C,D) Control or treated tumor lysates were subjected to Western blot analysis for c-Met and c-Myc expression using specific antibodies and representative bands are shown. The blot was reprobed with an antibody to Actin for normalization. […] Small bar indicates standard error (*, p < 0.05; **, p < 0.01; *** p < 0.001).
JHU029 or Cal27 cells (1.5 × 10^6) containing 40% Matrigel were injected subcutaneously into the flank of BALB/c athymic nude mice (7–8 weeks old). When the palpable tumor was developed (>60 mm^3), mice were divided into three groups randomly, 5 mice in each group. The control group was without any treatment. The BME group received 30% (v/v) BME through drinking water. M-I group received 30 mg/kg dose of M-I once in day, every day. Body weight was monitored, and tumor size was measured using a slide caliper and volume was calculated using the formula ½ L × W^2. After animal sacrifice tumors were dissected out and snap frozen in liquid nitrogen for further analysis. All the animal experiments were carried out in accordance NIH guidelines, following a protocol approved (1017) by the Institutional Animal Care and Use Committee (IACUC) of Saint Louis University.

total STAT3 = test: Western blot of treated HNC cells; assay type: cell-based, human; settings: for total STAT3 level, short term treatment: Cal27 cells, 2% BME or 10 μg/mL M-I
Protocol: (§1) Figure 2 Momordicine-I inhibited c-Met signaling in HNC cells. (A) Cal27, JHU029 […] cells were treated with either 2% BME or 10 µg/mL of M-I and JHU022 cells were treated with either 3% BME or 20 µg/mL dose of M-I. Cell lysates were prepared after 48 hr of treatment and subjected to Western blot analysis using specific antibodies. Representative Western blot images for c-Met expression in Cal27, JHU029 and JHU022 cells are shown. Membrane was reprobed with the antibody for actin as an internal control. (B) Representative Western blot image for phospho-STAT3 (pSTAT3 Tyr-705) and total STAT3 expression in Cal27 and JHU029 cells with BME or M-I treatment. Membrane was reprobed by actin as an internal control. Quantitative representation of Western blot band intensities (right panel). Small bar indicates standard error (* p < 0.05; *** p < 0.001). (C) Cal27 cells were treated with 2% BME or M-I (10 μg/mL) at indicated time points. (D) Cal27 cells were treated with control siRNA or siRNA to c-Met (si-Met) for 48 hr. Cell lysates (from panels c and D) were subjected to analyze by western blot for pSTAT3 or STAT3 using specific antibody. Membranes were reprobed by actin as internal control. Quantitative representation of Western blot band intensities (right panel). Small bar indicates standard error (*** p < 0.001).
(§2) Bitter melon extract (BME) was prepared from the Chinese variety of young bitter melons (raw and green) as described previously. Briefly, BME was prepared by aqueous extraction from whole fruit without seeds using a household juicer at room temperature with subsequent centrifugation at 15000× g at 4 °C for 30 min. BME was stored at −80 °C for further analysis. Cal27 and JHU029 cells were treated with 2% BME and JHU022 cells were treated with 3% BME as described previously. The momordicine-I (>98% pure) was purchased from Chemfaces (Cat. No.: CFN92076; Hubei, China). The powder was dissolved in DMSO and added to the cells at different concentrations. Based on cytotoxicity data, Cal27 and JHU029 cells were treated with 10 µg/mL and JHU022 cells were treated with 20 µg/mL dose of M-I and incubated for 48 hr for further experiments. All the experiments were done at least in triplicate.
(§3) Lysates from control, BME or M-I treated cells and tumors were prepared using 2× SDS sample buffer and subjected to western blot analysis using specific antibodies to c-Met (1: 500, Cell Signaling Technology, CST, Denvers, MA, USA,), phospho- STAT3 (pSTAT3-Tyr-705) (1:1000, CST), total STAT3 (1:1000, CST), c-Myc (1:1000, CST), survivin (1:500, Santa Cruz Biotechnology, SBT, Dallas, TX, USA) and cyclin D1 (1: 500, SBT). HRP conjugated anti-mouse or anti-rabbit secondary antibodies were purchased from Bio-Rad (Hercules, CA, USA). The blot was reprobed with HRP conjugated β-actin antibody (1:5000; SBT) to compare protein load in each lane. Densitometry analysis was done using Image J software (NIH, Bethesda, MD, USA).

c-Met = test: Western blot of treated HNC cells; assay type: cell-based, human; settings: Cal27, JHU029 and JHU022 cells, 48 hr; 2% or 3% BME, 10 or 20 µg/mL M-I; vs vehicle control
Protocol: as §1, §2, §3

phospho-STAT3 (Tyr-705) = test: Western blot of treated HNC cells; assay type: cell-based, human
Protocol: as §1, §2, §3

rat cardiac fibroblasts = settings: cited from earlier work
[1] = Pharmacokinetic study, single dose IP or oral gavage; assay type: in vivo, C57Bl/6 male mice; settings: male C57Bl/6 mouse blood
[2] = Cal27 xenograft tumor lysates, Western blot, vs control

CC(C)=CC(O)CC(C)[C@H]1CC[C@@]2(C)[C@@H]3[C@@H](O)C=C4[C@@H](CC[C@H](O)C4(C)C)[C@]3(C=O)CC[C@]12C (stereo partly drawn) [M-I, (3S, 7S, 8S, 9R, 10R, 13R, 14S, 17R) 3,7-dihydroxy-17-(4-hydroxy-6-methylhept-5-en-2-yl)-4,4,13,14-tetramethyl-2,3,7,8,10,11, 12,15,16,17-decahydro-1H-cyclopenta[a]phenanthrene-9-carbaldehyde]
survivin expression (survivin): significant inhibition | c-Met expression in tumors (Cal27 xenograft; [2]): significant reduction | c-Myc expression in tumors (Cal27 xenograft; [2]): significant reduction | reduction of tumor growth (Cal27 xenograft; Cal27 xenograft, nude mice, M-I 30 mg/kg IP once a day or 30% BME in drinking water): ~ 50% | body weight (Cal27 xenograft; Cal27 xenograft, throughout the experiment): increasing body weight | total STAT3 level (total STAT3; Cal27 and JHU029 cells, 48 hr, 10 µg/mL M-I): substantial reduction | total STAT3 level, short term treatment (total STAT3; 15 min): without affecting | total STAT3 level, short term treatment (total STAT3; 240 min): inhibited | c-Met expression (c-Met): significant reduction | phospho-STAT3 (Tyr-705) expression (phospho-STAT3 (Tyr-705); Cal27 and JHU029 cells, 48 hr, 2% BME or 10 µg/mL M-I): significant reduction | pSTAT3 level, short term treatment (phospho-STAT3 (Tyr-705); Cal27 cells, 15 min, 2% BME or 10 μg/mL M-I): inhibits | effect on high-glucose-induced cell proliferation and collagen synthesis (rat cardiac fibroblasts): inhibitory effects | stability in mouse blood [1]: stable
